Legend:
lambsquarters = assay: Test C preemergence; assay type: in vivo, Chenopodium album; settings: for Plant response rating (scale of 0 to 100), Lambsquarters: Preemergence, 250 g ai/ha; for Lambsquarters plant response rating / Plant response rating, Lambsquarters: preemergence; for Plant response rating, Lambsquarters: 62 g ai/ha, scale 0 to 100, 0 = no effect, 100 = complete control
Source text: (§1) Seeds of plant species selected from blackgrass (Alopecurus myosuroides), ryegrass, Italian (Italian ryegrass, Lolium multiflorum), wheat (winter wheat, Triticum aestivum), galium (catchweed bedstraw, Galium aparine), corn (Zea mays), crabgrass, large (large crabgrass, Digitaria sanguinalis), foxtail, giant (giant foxtail, Setaria faberii), johnsongrass (Sorghum halepense), lambsquarters (Chenopodium album), morningglory (Ipomoea coccinea), nutsedge, yellow (yellow nutsedge, Cyperus esculentus), pigweed (redroot pigweed, Amaranthus retroflexus), ragweed (common ragweed, Ambrosia elation), soybean (Glycine max), barnyardgrass (Echinochloa crus-galli), oilseed rape (Brassica napus), waterhemp (common waterhemp, Amaranthus rudis), oat, wild (wild oat, Avena fatua), kochia (Kochia scoparia), Surinam grass (Brachiaria decumbens), foxtail, green (green foxtail, Setaria viridis), goosegrass (Eleusine indica), bromegrass, downy (downy bromegrass, Bromus tectorum), nightshade (eastern black nightshade, Solanum ptycanthum), cocklebur (common cocklebur, Xanthium strumarium), cupgrass, woolly (woolly cupgrass, Eriochloa villosa), bermudagrass (Cynodon dactylon), sunflower, (common oilseed sunflower, Helianthus annuus), Russian thistle (Salsola kali), and velvetleaf (Abutilon theophrasti) were planted into a blend of loam soil and sand and treated preemergence with test chemicals formulated in a non-phytotoxic solvent mixture which included a surfactant.
(§2) At the same time, plants selected from these crop and weed species and also chickweed (common chickweed, Stellaria media), canarygrass (littleseed canarygrass, Phalaris minor), and deadnettle (henbit deadnettle, Lamium amplexicaule), were planted in pots containing Redi-Earth® planting medium (Scotts Company, 14111 Scottslawn Road, Marysville, Ohio 43041) comprising spaghnum peat moss, vermiculite, wetting agent and starter nutrients and treated with postemergence applications of test chemicals formulated in the same manner. Plants ranged in height from 2 to 18 cm (1- to 4-leaf stage) for postemergence treatments. Treated plants and controls were maintained in a greenhouse for 13 to 15 days, after which time all species were compared to controls and visually evaluated. Plant response ratings, summarized in Table C, are based on a scale of 0 to 100 where 0 is no effect and 100 is complete control. A dash (-) response means no test result.

blackgrass = assay: Test C preemergence; assay type: in vivo, Alopecurus myosuroides; settings: for Plant response rating (scale of 0 to 100), Blackgrass: Preemergence, 250 g ai/ha; for Blackgrass plant response rating / Plant response rating, Blackgrass: preemergence; for Plant response rating, Blackgrass: 62 g ai/ha, scale 0 to 100, 0 = no effect, 100 = complete control
Source text: as §1, §2

johnsongrass = assay: Test C preemergence; assay type: in vivo, Sorghum halepense; settings: for Plant response rating (scale of 0 to 100), Johnsongrass: Preemergence, 250 g ai/ha; for Johnsongrass plant response rating / Plant response rating, Johnsongrass: preemergence; for Plant response rating, Johnsongrass: 62 g ai/ha, scale 0 to 100, 0 = no effect, 100 = complete control
Source text: as §1, §2

ryegrass, Italian = assay: Test C postemergence; assay type: in vivo, Lolium multiflorum; settings: postemergence
Source text: as §1, §2

barnyardgrass = assay: Test A postemergence; assay type: in vivo, Echinochloa crus-galli; settings: Postemergence
How it was run: (§3)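 Greenhouse test in loam soil/sand blend; compounds formulated in non-phytotoxic solvent with surfactant, applied as preemergence directed soil spray or postemergence to plants 2–10 cm tall at one- to two-leaf stage. Injury rated visually versus untreated controls after approximately 10 days on a 0 (no effect) to 100 (complete control) scale.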

chickweed = assay: Test C postemergence; assay type: in vivo, Stellaria media; settings: for Chickweed plant response rating: scale 0 to 100
Source text: as §1, §2

corn = assay: Test C postemergence; assay type: in vivo, Zea mays; settings: for Corn plant response rating: scale 0 to 100
Source text: as §1, §2

pigweed = assay: Test C postemergence; assay type: in vivo, Amaranthus retroflexus; settings: for Pigweed plant response rating: scale 0 to 100
Source text: as §1, §2

soybean = assay: Test C preemergence; assay type: in vivo, Glycine max; settings: for Plant response rating (scale of 0 to 100), Soybean: Preemergence, 250 g ai/ha; for Soybean plant response rating / Plant response rating, Soybean: preemergence; for Plant response rating, Soybean: 62 g ai/ha, scale 0 to 100, 0 = no effect, 100 = complete control
Source text: as §1, §2

crabgrass, large = assay: Test C postemergence; assay type: in vivo, Digitaria sanguinalis; settings: for Crabgrass, Large plant response rating: scale 0 to 100
Source text: as §1, §2

morningglory = assay: Test A preemergence; assay type: in vivo, Ipomoea spp.; settings: 0 to 100 scale
How it was run: as §3

[1] = 31 g ai/ha, scale 0 to 100 (0 no effect, 100 complete control), 13 to 15 days
[2] = 125 g ai/ha, scale 0 to 100, 0 is no effect, 100 is complete control
[3] = 250 g ai/ha, scale 0 to 100 (0 no effect, 100 complete control)
[4] = 62 g ai/ha, scale 0 to 100, 0 no effect, 100 complete control
[5] = 125 g ai/ha, scale 0 to 100, 0 no effect, 100 complete control
[6] = 125 g ai/ha, 0 to 100 scale, 0 no effect, 100 complete control
[7] = 500 g ai/ha, visual rating after approx. 10 days, 0 to 100 scale (0 no effect, 100 complete control)
[8] = postemergence, 250 g ai/ha, scale 0 to 100 (0 no effect, 100 complete control)
[9] = postemergence, 62 g ai/ha, scale 0 to 100, 0 no effect, 100 complete control
[10] = postemergence, 125 g ai/ha, scale 0 to 100, 0 no effect, 100 complete control
[11] = Preemergence, 500 g ai/ha, 0 no effect, 100 complete control
[12] = preemergence, 125 g ai/ha, visual injury, approx. 10 days
[13] = 1000 g ai/ha, visual rating after approx. 10 days, 0 to 100 scale (0 no effect, 100 complete control)
[14] = Preemergence, 1000 g ai/ha, 0 no effect, 100 complete control

Compound: CCc1cc(C(=O)NOC(C)C)nn1Cc1cccc(OC(F)(F)F)c1 [Compound 70]
- Plant response rating (scale of 0 to 100), Lambsquarters (lambsquarters): 100
- Lambsquarters plant response rating (lambsquarters; [1]): 98
- Plant response rating, Lambsquarters (lambsquarters; 13 to 15 days): 98
- Lambsquarters plant response rating (lambsquarters; [2]): 100
- Plant response rating (scale of 0 to 100), Blackgrass (blackgrass): 85
- Blackgrass plant response rating (blackgrass; [1]): 65
- Plant response rating, Blackgrass (blackgrass; 13 to 15 days): 65
- Blackgrass plant response rating (blackgrass; [2]): 65
- Plant response rating (scale of 0 to 100), Johnsongrass (johnsongrass): 95
- Johnsongrass plant response rating (johnsongrass; [1]): 20
- Plant response rating, Johnsongrass (johnsongrass; 13 to 15 days): 65
- Johnsongrass plant response rating (johnsongrass; [2]): 80
- Plant response rating, Ryegrass, Italian (ryegrass, Italian; [3]): 50
- Plant response rating, Ryegrass, Italian (ryegrass, Italian; [4]): 25
- Plant response rating, Ryegrass, Italian (ryegrass, Italian; [5]): 35
- Barnyardgrass plant response rating (barnyardgrass; [6]): 80
- Barnyardgrass plant response rating (barnyardgrass; [7]): 90
- Chickweed plant response rating (chickweed; Postemergence, 31 g ai/ha): 45
- Plant response rating, Chickweed (chickweed; [8]): 65
- Plant response rating, Chickweed (chickweed; [9]): 45
- Plant response rating, Chickweed (chickweed; [10]): 50
- Corn plant response rating (corn; Postemergence, 31 g ai/ha): 10
- Plant response rating, Corn (corn; [8]): 50
- Plant response rating, Corn (corn; [9]): 40
- Plant response rating, Corn (corn; [10]): 45
- Pigweed plant response rating (pigweed; Postemergence, 31 g ai/ha): 60
- Plant response rating, Pigweed (pigweed; [8]): 75
- Plant response rating, Pigweed (pigweed; [9]): 65
- Plant response rating, Pigweed (pigweed; [10]): 70
- Plant response rating (scale of 0 to 100), Soybean (soybean): 75
- Soybean plant response rating (soybean; [1]): 5
- Plant response rating, Soybean (soybean; 13 to 15 days): 15
- Soybean plant response rating (soybean; [2]): 70
- Crabgrass, Large plant response rating (crabgrass, large; Postemergence, 31 g ai/ha): 5
- Plant response rating, Crabgrass, Large (crabgrass, large; [8]): 45
- Plant response rating, Crabgrass, Large (crabgrass, large; [9]): 10
- Plant response rating, Crabgrass, Large (crabgrass, large; [10]): 40
- Morningglory plant response rating (morningglory; [11]): 100
- Morningglory plant response rating (morningglory; [12]): 80

Compound: CCCNC(=O)c1cc(CC)n(Cc2cccc(OC(F)(F)F)c2)n1 [Compound 27]
- Plant response rating, Ryegrass, Italian (ryegrass, Italian; [3]): 15
- Plant response rating, Ryegrass, Italian (ryegrass, Italian; [4]): 5
- Plant response rating, Ryegrass, Italian (ryegrass, Italian; [5]): 10
- Barnyardgrass plant response rating (barnyardgrass; [13]): 60
- Chickweed plant response rating (chickweed; Postemergence, 31 g ai/ha): 20
- Plant response rating, Chickweed (chickweed; [8]): 75
- Plant response rating, Chickweed (chickweed; [9]): 20
- Plant response rating, Chickweed (chickweed; [10]): 40
- Corn plant response rating (corn; Postemergence, 31 g ai/ha): 10
- Plant response rating, Corn (corn; [8]): 15
- Plant response rating, Corn (corn; [9]): 10
- Plant response rating, Corn (corn; [10]): 15
- Pigweed plant response rating (pigweed; Postemergence, 31 g ai/ha): 40
- Plant response rating, Pigweed (pigweed; [8]): 50
- Plant response rating, Pigweed (pigweed; [9]): 40
- Plant response rating, Pigweed (pigweed; [10]): 40
- Crabgrass, Large plant response rating (crabgrass, large; Postemergence, 31 g ai/ha): 0
- Plant response rating, Crabgrass, Large (crabgrass, large; [8]): 45
- Plant response rating, Crabgrass, Large (crabgrass, large; [9]): 5
- Plant response rating, Crabgrass, Large (crabgrass, large; [10]): 10
- Morningglory plant response rating (morningglory; [14]): 90

Compound: CCONC(=O)c1cc(CC)n(Cc2cccc(OC(F)(F)F)c2)n1 [Compound 72]
- Plant response rating (scale of 0 to 100), Lambsquarters (lambsquarters): 100
- Lambsquarters plant response rating (lambsquarters; [1]): 100
- Plant response rating, Lambsquarters (lambsquarters; 13 to 15 days): 100
- Lambsquarters plant response rating (lambsquarters; [2]): 100
- Plant response rating (scale of 0 to 100), Blackgrass (blackgrass): 85
- Blackgrass plant response rating (blackgrass; [1]): 45
- Plant response rating, Blackgrass (blackgrass; 13 to 15 days): 80
- Blackgrass plant response rating (blackgrass; [2]): 85
- Plant response rating (scale of 0 to 100), Johnsongrass (johnsongrass): 75
- Johnsongrass plant response rating (johnsongrass; [1]): 40
- Plant response rating, Johnsongrass (johnsongrass; 13 to 15 days): 55
- Johnsongrass plant response rating (johnsongrass; [2]): 65
- Ryegrass, Italian plant response rating (ryegrass, Italian; 62 g ai/ha, scale 0 to 100): 10
- Plant response rating, Ryegrass, Italian (ryegrass, Italian; [3]): 40
- Plant response rating, Ryegrass, Italian (ryegrass, Italian; [5]): 15
- Barnyardgrass plant response rating (barnyardgrass; [6]): 90
- Barnyardgrass plant response rating (barnyardgrass; [7]): 90
- Chickweed plant response rating (chickweed; Postemergence, 31 g ai/ha): 40
- Chickweed plant response rating (chickweed; postemergence, 62 g ai/ha): 40
- Plant response rating, Chickweed (chickweed; [8]): 80
- Plant response rating, Chickweed (chickweed; [10]): 50
- Corn plant response rating (corn; Postemergence, 31 g ai/ha): 10
- Corn plant response rating (corn; postemergence, 62 g ai/ha): 10
- Plant response rating, Corn (corn; [8]): 60
- Plant response rating, Corn (corn; [10]): 10
- Pigweed plant response rating (pigweed; Postemergence, 31 g ai/ha): 45
- Pigweed plant response rating (pigweed; postemergence, 62 g ai/ha): 45
- Plant response rating, Pigweed (pigweed; [8]): 65
- Plant response rating, Pigweed (pigweed; [10]): 65
- Plant response rating (scale of 0 to 100), Soybean (soybean): 75
- Soybean plant response rating (soybean; [1]): 20
- Plant response rating, Soybean (soybean; 13 to 15 days): 60
- Soybean plant response rating (soybean; [2]): 75
- Crabgrass, Large plant response rating (crabgrass, large; Postemergence, 31 g ai/ha): 5
- Crabgrass, Large plant response rating (crabgrass, large; postemergence, 62 g ai/ha): 5
- Plant response rating, Crabgrass, Large (crabgrass, large; [8]): 25
- Plant response rating, Crabgrass, Large (crabgrass, large; [10]): 5
- Morningglory plant response rating (morningglory; [11]): 90
- Morningglory plant response rating (morningglory; [12]): 60

Compound: CCc1cc(C(=O)NCC(F)(F)F)nn1Cc1cccc(OC(F)(F)F)c1 [Compound 20]
- Plant response rating, Ryegrass, Italian (ryegrass, Italian; [3]): 25
- Plant response rating, Ryegrass, Italian (ryegrass, Italian; [4]): 10
- Plant response rating, Ryegrass, Italian (ryegrass, Italian; [5]): 15
- Barnyardgrass plant response rating (barnyardgrass; [13]): 60
- Chickweed plant response rating (chickweed; Postemergence, 31 g ai/ha): 45
- Plant response rating, Chickweed (chickweed; [8]): 75
- Plant response rating, Chickweed (chickweed; [9]): 45
- Plant response rating, Chickweed (chickweed; [10]): 75
- Corn plant response rating (corn; Postemergence, 31 g ai/ha): 15
- Plant response rating, Corn (corn; [8]): 25
- Plant response rating, Corn (corn; [9]): 20
- Plant response rating, Corn (corn; [10]): 20
- Pigweed plant response rating (pigweed; Postemergence, 31 g ai/ha): 60
- Plant response rating, Pigweed (pigweed; [8]): 80
- Plant response rating, Pigweed (pigweed; [9]): 75
- Plant response rating, Pigweed (pigweed; [10]): 75
- Crabgrass, Large plant response rating (crabgrass, large; Postemergence, 31 g ai/ha): 10
- Plant response rating, Crabgrass, Large (crabgrass, large; [8]): 45
- Plant response rating, Crabgrass, Large (crabgrass, large; [9]): 20
- Plant response rating, Crabgrass, Large (crabgrass, large; [10]): 35
- Morningglory plant response rating (morningglory; [14]): 70
